Assay results from the supplement of paper PMC11061612.

Experiments:
Carboplatin = compound: C1CC(C1)(C(=O)[O-])C(=O)[O-].N.N.[Pt+2] [Carboplatin]; conditions: max 10 µM
In short: (§1)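 Cancer cell lines were plated in 1536-well plates in 7.5 μl of DMEM/F12 or RPMI with 10% FBS and kept 24 hours at 37°C and 5% CO2 before 72 hours of dosing, with final DMSO typically 0.2%. CellTiter-Glo 2.0 luminescence measured viability, scaled between blank-well and DMSO-well means. Dose responses were fitted to a two-parameter logistic curve with a non-linear mixed effects model. This fit gives the single-agent IC50.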

AZD5363 = compound: C1CN(CCC1(C(=O)N[C@@H](CCO)C2=CC=C(C=C2)Cl)N)C3=NC=NC4=C3C=CN4 [AZD5363]; conditions: max 10 µM
In short: as §1

AZD1775 = compound: C=CCn1c(=O)c2cnc(Nc3ccc(N4CCN(C)CC4)cc3)nc2n1-c1cccc(C(C)(C)O)n1 [AZD1775]; conditions: max 3 µM
In short: as §1

Trametinib = compound: CC(=O)Nc1cccc(-n2c(=O)n(C3CC3)c(=O)c3c(Nc4ccc(I)cc4F)n(C)c(=O)c(C)c32)c1 [Trametinib]; conditions: max 1 µM
In short: as §1

Paclitaxel = compound: CC(=O)O[C@H]1C(=O)[C@@]2(C)[C@H]([C@H](OC(=O)c3ccccc3)[C@]3(O)C[C@H](OC(=O)[C@H](O)[C@@H](NC(=O)c4ccccc4)c4ccccc4)C(C)=C1C3(C)C)[C@]1(OC(C)=O)CO[C@@H]1C[C@@H]2O [Paclitaxel]; conditions: max 3 µM
In short: as §1

Palbociclib = compound: CC(=O)c1c(C)c2cnc(Nc3ccc(N4CCNCC4)cn3)nc2n(C2CCCC2)c1=O [Palbociclib]; conditions: max 10 µM
In short: as §1

AZD1390 = compound: CC(C)n1c(=O)n(C)c2cnc3cc(F)c(-c4ccc(OCCCN5CCCCC5)nc4)cc3c21 [AZD1390]; conditions: max 0.3 µM
In short: as §1

Venetoclax = compound: CC1(C)CCC(CN2CCN(c3ccc(C(=O)NS(=O)(=O)c4ccc(NCC5CCOCC5)c([N+](=O)[O-])c4)c(Oc4cnc5[nH]ccc5c4)c3)CC2)=C(c2ccc(Cl)cc2)C1 [Venetoclax]; conditions: max 1 µM
In short: as §1

Dasatinib = compound: CC1=C(C(=CC=C1)Cl)NC(=O)C2=CN=C(S2)NC3=CC(=NC(=N3)C)N4CCN(CC4)CCO [Dasatinib]; conditions: max 2 µM
In short: as §1

SG3199 = compound: CC1=CN2[C@@H](C1)C=NC3=CC(=C(C=C3C2=O)OC)OCCCCCOC4=C(C=C5C(=C4)N=C[C@@H]6CC(=CN6C5=O)C)OC [SG3199]; conditions: max 0.001 µM
In short: as §1

AZD2811 = compound: CCN(CCO)CCCOc1ccc2c(Nc3cc(CC(=O)Nc4cccc(F)c4)[nH]n3)ncnc2c1 [AZD2811]; conditions: max 1 µM
In short: as §1

SN-38 = compound: CCc1c2c(nc3ccc(O)cc13)-c1cc3c(c(=O)n1C2)COC(=O)[C@]3(O)CC [SN-38]; conditions: max 0.3 µM
In short: as §1

AZD0156 = compound: CN(C)CCCOc1ccc(-c2ccc3ncc4c(c3c2)n(C2CCOCC2)c(=O)n4C)cn1 [AZD0156]; conditions: max 3 µM
In short: as §1

AZD4320 = compound: CN(CC[C@H](CSC1=CC=CC=C1)NC2=C(C=C(C=C2)S(=O)(=O)NC(=O)C3=CC=C(C=C3)N4CCC(CC4)[C@H](C5=CC=CC=C5C6=CC=C(C=C6)Cl)O)S(=O)(=O)C(F)(F)F)CCO [AZD4320]; conditions: max 1 µM
In short: as §1

Alisertib = compound: COc1cc(Nc2ncc3c(n2)-c2ccc(Cl)cc2C(c2c(F)cccc2OC)=NC3)ccc1C(=O)O [Alisertib]; conditions: max 10 µM
In short: as §1

Etoposide = compound: COc1cc([C@@H]2c3cc4c(cc3[C@@H](O[C@@H]3O[C@@H]5CO[C@@H](C)O[C@H]5[C@H](O)[C@H]3O)[C@H]3COC(=O)[C@H]23)OCO4)cc(OC)c1O [Etoposide]; conditions: max 10 µM
In short: as §1

Gefitinib = compound: COc1cc2ncnc(Nc3ccc(F)c(Cl)c3)c2cc1OCCCN1CCOCC1 [Gefitinib]; conditions: max 10 µM
In short: as §1

Prexasertib = compound: COc1cccc(OCCCN)c1-c1cc(Nc2cnc(C#N)cn2)n[nH]1 [Prexasertib]; conditions: max 1 µM
In short: as §1

Doxorubicin = compound: COc1cccc2c1C(=O)c1c(O)c3c(c(O)c1C2=O)C[C@@](O)(C(=O)CO)C[C@@H]3O[C@H]1C[C@H](N)[C@H](O)[C@H](C)O1 [Doxorubicin]; conditions: max 1 µM
In short: as §1

AZD5153 = compound: COc1nnc2ccc(N3CCC(c4ccc(OCCN5CCN(C)C(=O)[C@H]5C)cc4)CC3)nn12 [AZD5153]; conditions: max 1 µM
In short: as §1

Lapatinib = compound: CS(=O)(=O)CCNCc1ccc(-c2ccc3ncnc(Nc4ccc(OCc5cccc(F)c5)c(Cl)c4)c3c2)o1 [Lapatinib]; conditions: max 10 µM
In short: as §1

AZD8186 = compound: C[C@@H](Nc1cc(F)cc(F)c1)c1cc(C(=O)N(C)C)cc2c(=O)cc(N3CCOCC3)oc12 [AZD8186]; conditions: max 10 µM
In short: as §1

Crizotinib = compound: C[C@@H](Oc1cc(-c2cnn(C3CCNCC3)c2)cnc1N)c1c(Cl)ccc(F)c1Cl [Crizotinib]; conditions: max 10 µM
In short: as §1

Savolitinib = compound: C[C@@H](c1ccc2nccn2c1)n1nnc2ncc(-c3cnn(C)c3)nc21 [Savolitinib]; conditions: max 1 µM
In short: as §1

AZD6738 = compound: C[C@@H]1COCCN1C2=NC(=NC(=C2)C3(CC3)[S@](=N)(=O)C)C4=C5C=CNC5=NC=C4 [AZD6738]; conditions: max 10 µM
In short: as §1

AZD5991 = compound: Cc1c2c(nn1C)CSCc1cc(n(C)n1)CSc1cc(c3ccccc3c1)OCCCc1c(C(=O)O)n(C)c3c-2c(Cl)ccc13 [AZD5991]; conditions: max 1 µM
In short: as §1

AZD7648 = compound: Cc1cc2ncnn2cc1Nc1ncc2c(n1)n(C1CCOCC1)c(=O)n2C [AZD7648]; conditions: max 10 µM
In short: as §1

Taselisib = compound: Cc1nc(-c2cn3c(n2)-c2ccc(-c4cnn(C(C)(C)C(N)=O)c4)cc2OCC3)n(C(C)C)n1 [Taselisib]; conditions: max 10 µM
In short: as §1

Selumetinib = compound: Cn1cnc2c(F)c(Nc3ccc(Br)cc3Cl)c(C(=O)NOCCO)cc21 [Selumetinib]; conditions: max 10 µM
In short: as §1

SRA737 = compound: N#Cc1cnc(Nc2cc(NC[C@H]3CNCCO3)c(C(F)(F)F)cn2)cn1 [SRA737]; conditions: max 10 µM
In short: as §1

MK-2206 = compound: NC1(c2ccc(-c3nc4ccn5c(=O)[nH]nc5c4cc3-c3ccccc3)cc2)CCC1 [MK-2206]; conditions: max 10 µM
In short: as §1

Gemcitabine = compound: Nc1ccn([C@@H]2O[C@H](CO)[C@@H](O)C2(F)F)c(=O)n1 [Gemcitabine]; conditions: max 0.3 µM
In short: as §1

[1] = compound: O=C(Nc1ccc2[nH]nc(-c3ccncc3)c2c1)[C@@H]1CCN(CC(=O)N2CCN(c3ccc(-c4ncccn4)cc3)CC2)C1; conditions: max 5 µM
In short: as §1

Olaparib = compound: O=C(c1cc(Cc2n[nH]c(=O)c3ccccc23)ccc1F)N1CCN(C(=O)C2CC2)CC1 [Olaparib]; conditions: max 10 µM
In short: as §1

5-Fluorouracil = compound: O=c1[nH]cc(F)c(=O)[nH]1 [5-Fluorouracil]; conditions: max 20 µM
In short: as §1

| Cell Line | IC50, cell viability 72 h (Carboplatin) | IC50, cell viability 72 h (AZD5363) | IC50, cell viability 72 h (AZD1775) | IC50, cell viability 72 h (Trametinib) | IC50, cell viability 72 h (Paclitaxel) | IC50, cell viability 72 h (Palbociclib) | IC50, cell viability 72 h (AZD1390) | IC50, cell viability 72 h (Venetoclax) | IC50, cell viability 72 h (Dasatinib) | IC50, cell viability 72 h (SG3199) | IC50, cell viability 72 h (AZD2811) | IC50, cell viability 72 h (SN-38) | IC50, cell viability 72 h (AZD0156) | IC50, cell viability 72 h (AZD4320) | IC50, cell viability 72 h (Alisertib) | IC50, cell viability 72 h (Etoposide) | IC50, cell viability 72 h (Gefitinib) | IC50, cell viability 72 h (Prexasertib) | IC50, cell viability 72 h (Doxorubicin) | IC50, cell viability 72 h (AZD5153) | IC50, cell viability 72 h (Lapatinib) | IC50, cell viability 72 h (AZD8186) | IC50, cell viability 72 h (Crizotinib) | IC50, cell viability 72 h (Savolitinib) | IC50, cell viability 72 h (AZD6738) | IC50, cell viability 72 h (AZD5991) | IC50, cell viability 72 h (AZD7648) | IC50, cell viability 72 h (Taselisib) | IC50, cell viability 72 h (Selumetinib) | IC50, cell viability 72 h (SRA737) | IC50, cell viability 72 h (MK-2206) | IC50, cell viability 72 h (Gemcitabine) | IC50, cell viability 72 h [1] | IC50, cell viability 72 h (Olaparib) | IC50, cell viability 72 h (5-Fluorouracil) |
| --- | --- | --- | --- | --- | --- | --- | --- | --- | --- | --- | --- | --- | --- | --- | --- | --- | --- | --- | --- | --- | --- | --- | --- | --- | --- | --- | --- | --- | --- | --- | --- | --- | --- | --- | --- |
| NCI-H727 (Other Solid Carcinomas) | > 10 µM | > 10 µM | 2.6 µM | 0.0392 µM | > 3 µM | > 10 µM | > 0.3 µM | > 1 µM | > 2 µM | > 0.001 µM | > 1 µM | > 0.3 µM | > 3 µM | > 1 µM | > 10 µM | > 10 µM | > 10 µM | 0.0759 µM | > 1 µM | > 1 µM | > 10 µM | > 10 µM | > 10 µM | > 1 µM | > 10 µM | > 1 µM | > 10 µM | 2.5 µM | 1.12 µM | > 10 µM | > 10 µM | > 0.3 µM | 0.833 µM | > 10 µM | > 20 µM |
| UACC-62 (Melanoma) | > 10 µM | > 10 µM | > 3 µM | 0.00406 µM | 0.598 µM | > 10 µM | > 0.3 µM | > 1 µM | > 2 µM | > 0.001 µM | > 1 µM | 0.0156 µM | > 3 µM | > 1 µM | > 10 µM | > 10 µM | > 10 µM | 0.136 µM | 0.373 µM | > 1 µM | > 10 µM | 3.99 µM | > 10 µM | > 1 µM | > 10 µM | 0.282 µM | > 10 µM | 4.61 µM | 0.284 µM | > 10 µM | > 10 µM | > 0.3 µM | 0.0846 µM | > 10 µM | > 20 µM |
| Hs-766T (Pancreatic Carcinoma) | > 10 µM | > 10 µM | > 3 µM | 0.113 µM | > 3 µM | > 10 µM | > 0.3 µM | > 1 µM | > 2 µM | > 0.001 µM | > 1 µM | > 0.3 µM | > 3 µM | > 1 µM | > 10 µM | > 10 µM | > 10 µM | 0.163 µM | > 1 µM | > 1 µM | > 10 µM | > 10 µM | > 10 µM | > 1 µM | > 10 µM | > 1 µM | > 10 µM | > 10 µM | 5.43 µM | > 10 µM | > 10 µM | > 0.3 µM | > 5 µM | > 10 µM | > 20 µM |
| PANC-04-03 (Pancreatic Carcinoma) | > 10 µM | > 10 µM | > 3 µM | 0.286 µM | 2.34 µM | > 10 µM | > 0.3 µM | > 1 µM | > 2 µM | > 0.001 µM | > 1 µM | > 0.3 µM | > 3 µM | > 1 µM | > 10 µM | > 10 µM | > 10 µM | 0.53 µM | > 1 µM | > 1 µM | > 10 µM | > 10 µM | > 10 µM | > 1 µM | > 10 µM | > 1 µM | > 10 µM | 7.66 µM | > 10 µM | > 10 µM | > 10 µM | > 0.3 µM | 4.53 µM | > 10 µM | > 20 µM |
| TGW (Neuroblastoma) | > 10 µM | > 10 µM | 0.571 µM | > 1 µM | 0.108 µM | > 10 µM | > 0.3 µM | > 1 µM | > 2 µM | > 0.001 µM | > 1 µM | 0.0505 µM | > 3 µM | 0.127 µM | 0.162 µM | > 10 µM | > 10 µM | 0.0277 µM | 0.521 µM | > 1 µM | > 10 µM | > 10 µM | 6.84 µM | > 1 µM | 7.37 µM | > 1 µM | > 10 µM | > 10 µM | > 10 µM | > 10 µM | > 10 µM | 0.159 µM | > 5 µM | > 10 µM | > 20 µM |
